Results: patent US11285156B2, “Substituted piperazines as KRAS G12C inhibitors” (Amgen Inc., priority 2018, dated 2022)
Where two headings read alike, the source gives them in different places.

Assays:
[1] = target: GDP-bound KRAS protein (aa 1-169), containing both G12C and C118A amino acid substitutions (Homo sapiens (Human), UniProt P01116, C118A/G12C); experiment: Coupled nucleotide exchange assay (SOS-mediated nucleotide exchange, AlphaScreen); format: biochemical; conditions: 5 min compound pre-incubation; for IC50: read-out: Coupled exchange IC50 (5 min; μM)
GDP-bound KRAS protein (aa 1-169), containing both G12C and C118A amino acid substitutions, sequence (P01116 other isoform, or with tags, fused parts or gaps G12C/C118A): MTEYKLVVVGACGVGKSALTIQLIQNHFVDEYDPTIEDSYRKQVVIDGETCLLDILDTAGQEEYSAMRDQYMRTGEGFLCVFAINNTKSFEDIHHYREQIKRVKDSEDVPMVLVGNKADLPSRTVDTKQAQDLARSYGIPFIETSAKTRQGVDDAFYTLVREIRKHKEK

[2] = system: Phosphorylation of ERK1/2 in MIA PaCa-2 cells; experiment: Phospho-ERK1/2 MSD assay in MIA PaCa-2 cells; format: cell-based; conditions: read-out: p-ERK IC50 (2 h, MiaPaCa-2; μM), 2 h compound treatment, MIA PaCa-2 cells, EGF stimulated
Method in brief: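 Phospho-ERK1/2 measured by MSD electrochemiluminescence kit in RIPA lysates of MIA PaCa-2 cells. Cells were treated with compound titrations for 2 or 4 h at 37 °C, 5% CO2, followed by a 10 min pulse of 10 ng/mL EGF.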

[3] = system: Phosphorylation of ERK1/2 in A549 cells; experiment: Phospho-ERK1/2 MSD assay in A549 cells; format: cell-based; conditions: read-out: p-ERK IC50 (2 h, A549; μM), 2 h compound treatment, A549 cells, EGF stimulated
Method in brief: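 MSD electrochemiluminescent read-out of phospho-ERK1/2 in RIPA lysates. Cells in RPMI 1640 with 10% FBS received titrated compound for 2 or 4 h, then 10 ng/mL EGF for 10 min before ice-cold PBS wash and lysis.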

Row | Structure (SMILES) | IC50 [1] [µM] | IC50 ([2]; Homo sapiens, MIA PaCa-2, 2 h) [µM] | IC50 ([3]; Homo sapiens, A549, 2 h) [µM] | IC50 [2] [µM] | IC50 [3] [µM] | Coupled exchange IC50 (5 min; μM) [1] [µM]
1 | C=CC(=O)N1C[C@H](C)N(c2nc(=O)n(-c3c(C)ccnc3C(C)C)c3nc(-c4c(F)cccc4C(N)=O)c(Cl)cc23)C[C@H]1C (atropisomer, axis not shown; (M)) [Example 92-24, (M)-2-[6-Chloro-4-[(2S,5R)-2,5-dimethyl-4-prop-2-enoyl-piperazin-1-yl]-1-(2-isopropyl-4-methyl-3-pyridyl)-2-oxo-pyrido[2,3-d]pyrimidin-7-yl]-3-fluoro-benzamide] | 0.019 | 0.116 | > 7.5 |  |  | 
2 | C=CC(=O)N1CCN(c2nc(=O)n(CC(C)(C)C)c3nc(-c4ccccc4F)c(Cl)cc23)C(CC#N)C1 (stereo not drawn) [Example 145-3, 2-[1-[6-Chloro-1-(2,2-dimethypropyl)-7-(2-fluorophenyl)-2-oxo-pyrido[2,3-d]pyrimidin-4-yl]-4-prop-2-enoyl-piperazin-2-yl]acetonitrile] | 3.82 | 10 | 4.41 |  |  | 
3 | C=CC(=O)N1C[C@H](C)N(c2nc(=O)n(-c3c(C)ccnc3C(C)C)c3nc(-c4ccccc4OC)c(Cl)cc23)C[C@H]1C (atropisomer, axis not shown; (M)) [Example 92-67, (M)-6-Chloro-4-[(2S,5R)-2,5-dimethyl-4-prop-2-enoyl-piperazin-1-yl]-1-(2-isopropyl-4-methyl-3-pyridyl)-7-(2-methoxyphenyl) pyrido[2,3-d]pyrimidin-2-one] | 0.13 | 0.062 | > 7.5 |  |  | 
4 | C=CC(=O)N1C[C@H](C)N(c2nc(=O)n(-c3c(N(C)C)ccnc3C(C)C)c3nc(-c4ccccc4F)c(Cl)cc23)C[C@H]1C (single isomer, unassigned) [Example 55-51-1] | 0.298 |  |  | 0.157 | > 7.5 | 
5 | C=CC(=O)N1C[C@H](C)N(c2nc(=O)n(-c3c(CN(C)C)ccnc3C(C)C)c3nc(-c4ccccc4F)c(Cl)cc23)C[C@H]1C (single isomer, unassigned) [Example 80-16-1] | 0.061 | 0.041 | > 7.5 |  |  | 
6 | C=CC(=O)N1C[C@H](C)N(c2nc(=O)n(-c3c(C)ccnc3C(C)C)c3nc(-c4cccc(C#CC)c4)c(Cl)cc23)C[C@H]1C (atropisomer, axis not shown; (M)) [Example 92-49, (M)-6-Chloro-4-[(2S,5R)-2,5-dimethyl-4-prop-2-enoyl-piperazin-1-yl]-1-(2-isopropyl-4-methyl-3-pyridyl)-7-(3-prop-1-ynylphenyl) pyrido[2,3-d]pyrimidin-2-one] | 0.123 | 0.328 | > 7.5 |  |  | 
7 | C=CC(=O)N1C[C@H](C)N(c2nc(=O)n(-c3c(C)ccnc3C(C)C)c3nc(-c4c(F)cccc4NC(=O)C4CC4)c(Cl)cc23)C[C@H]1C (atropisomer, axis not shown; (M)) [Example 129-9, (M)-N-[2-[6-Chloro-4-[(2S,5R)-2,5-dimethyl-4-prop-2-enoyl-piperazin-1-yl]-1-(2-isopropyl-4-methyl-3-pyridyl)-2-oxo-pyrido[2,3-d]pyrimidin-7-yl]-3-fluoro-phenyl]cyclopropanecarboxamide] | 0.008 | 0.048 | > 7.5 |  |  | 
8 | C=CC(=O)N1C[C@H](C)N(c2nc(=O)n(-c3c(C(C)C)ccnc3C(C)C)c3nc(-c4ccccc4C)c(Cl)cc23)C[C@H]1C (single isomer, unassigned) [Example 124-2] | 0.033 | 0.032 | > 7.5 |  |  | 
9 | C=CC(=O)N1C[C@H](C)N(c2nc(=O)n(CC(C)(C)C#N)c3nc(-c4ccccc4F)c(Cl)cc23)C[C@H]1C [Example 106-8, 3-[6-Chloro-4-[(2S,5R)-2,5-dimethyl-4-prop-2-enoyl-piperazin-1-yl]-7-(2-fluorophenyl)-2-oxo-pyrido[2,3-d]pyrimidin-1-yl]-2,2-dimethyl-propanenitrile] | 3.35 | 1.88 | > 7.5 |  |  | 
10 | C=CC(=O)N1C[C@H](C)N(c2nc(=O)n(-c3c(N(C)C)ccnc3C(C)C)c3nc(-c4c(F)cccc4NC(=O)C4CC4)c(Cl)cc23)C[C@H]1C (single isomer, unassigned) [Example 122-3-2] | 0.179 | 0.145 | > 7.5 |  |  | 
11 | C=CC(=O)N1C[C@H](C)N(c2nc(=O)n(-c3c(C(C)C)ncnc3C(C)C)c3nc(-c4ccccc4F)c(F)cc23)C[C@H]1C [Example 101-2, 1-(4,6-Diisopropylpyrimidin-5-yl)-4-[(2S,5R)-2,5-dimethyl-4-prop-2-enoyl-piperazin-1-yl]-6-fluoro-7-(2-fluorophenyl)pyrido [2,3-d]pyrimidin-2-one] | 0.16 | 0.116 | > 7.5 |  |  | 
12 | C=CC(=O)N1C[C@H](C)N(c2nc(=O)n(-c3c(C)cc(S(C)(=O)=O)cc3C(C)C)c3nc(-c4ccccc4F)c(Cl)cc23)C[C@H]1C (single isomer, unassigned) [Example 215-2] |  | 0.086 | > 7.5 |  |  | 0.055
13 | C=CC(=O)N1C[C@H](C)N(c2nc(=O)n(-c3c(C(C)C)nc(NC)nc3C(C)C)c3nc(-c4ccccc4F)c(Cl)cc23)C[C@H]1C [Example 107-1, 4-((2S,5R)-4-Acryloyl-2,5-dimethylpiperazin-1-yl)-6-chloro-1-(4,6-diisopropyl-2-(methylamino)pyrimidin-5-yl)-7-(2-fluorophenyl)pyrido[2,3-d]pyrimidin-2(1H)-one] | 0.026 | 0.064 | 5.57 |  |  | 
14 | C=CC(=O)N1C[C@H](C)N(c2nc(=O)n(-c3c(C)ccnc3C(C)C)c3nc(-c4ccccc4NC)c(Cl)cc23)C[C@H]1C (atropisomer, axis not shown; (M)) [Example 92-25, (M)-6-Chloro-4-[(2S,5R)-2,5-dimethyl-4-prop-2-enoyl-piperazin-1-yl]-1-(2-isopropyl-4-methyl-3-pyridyl)-7-[2-(methylamino)phenyl]pyrido[2,3-d]pyrimidin-2-one] | 0.04 | 0.016 | > 7.5 |  |  | 
15 | C=CC(=O)N1C[C@H](C)N(c2nc(=O)n(-c3c(C)ccnc3C(C)C)c3nc(-c4cccnc4N)c(Cl)cc23)C[C@H]1C (atropisomer, axis not shown; (M)) [Example 92-13, (M)-7-(2-Amino-3-pyridyl)-6-chloro-4-[(2S,5R)-2,5-dimethyl-4-prop-2-enoyl-piperazin-1-yl]-1-(2-isopropyl-4-methyl-3-pyridyl)pyrido [2,3-d]pyrimidin-2-one] | 0.201 | 0.251 | > 7.5 |  |  | 
16 | C=CC(=O)N1C[C@H](C)N(c2nc(=O)n(-c3c(C(C)C)nc(S(=O)(=O)CCC)nc3C(C)C)c3nc(-c4ccccc4F)c(Cl)cc23)C[C@H]1C [Example 158, 4-((2S,5R)-4-Acryloyl-2,5-dimethylpiperazin-1-yl)-6-chloro-1-(4,6-diisopropyl-2-(propylsulfonyl)pyrimidin-5-yl)-7-(2-fluorophenyl)pyrido[2,3-d]pyrimidin-2(1H)-one] | 0.189 | 0.191 | 3.83 |  |  | 
17 | C=CC(=O)N1C[C@H](C)N(c2nc(=O)n(-c3c(C(C)C)nc(N4CCOCC4)nc3C(C)C)c3nc(-c4ccccc4F)c(Cl)cc23)C[C@H]1C [Example 107-3, 6-Chloro-1-(4,6-diisopropyl-2-morpholino-pyrimidin-5-yl)-4-[(2S,5R)-2,5-dimethyl-4-prop-2-enoyl-piperazin-1-yl]-7-(2-fluorophenyl)pyrido [2,3-d]pyrimidin-2-one] | 0.114 | 0.144 | 3.73 |  |  | 
18 | C=CC(=O)N1C[C@H](C)N(c2nc(=O)n(-c3c(CC)ncnc3C(C)C)c3nc(-c4ccccc4F)c(Cl)cc23)C[C@H]1C (single isomer, unassigned) [Example 109-1-2] | 0.209 |  |  | 0.08 | > 7.5 | 
19 | C=CC(=O)N1C[C@H](C)N(c2nc(=O)n(-c3c(C)ccnc3C(C)C)c3nc(-c4c(F)cccc4C(N)=O)c(F)cc23)C[C@H]1C (atropisomer, axis not shown; (M)) [Example 94-19, (M)-2-[4-[(2S,5R)-2,5-Dimethyl-4-prop-2-enoyl-piperazin-1-yl]-6-fluoro-1-(2-isopropyl-4-methyl-3-pyridyl)-2-oxo-pyrido[2,3-d]pyrimidin-7-yl]-3-fluoro-benzamide] | 0.067 | 0.518 | > 7.5 |  |  | 
20 | C=CC(=O)N1C[C@H](C)N(c2nc(=O)n(-c3c(C(C)C)cnnc3C(C)C)c3nc(-c4ccccc4F)c(Cl)cc23)C[C@H]1C (single isomer, unassigned) [Example 205-2] |  |  |  | 0.091 | > 7.5 | 0.078
21 | C=CC(=O)N1C[C@H](C)N(c2nc(=O)n(-c3c(C)ccnc3C(C)C)c3nc(-c4cccc(C)c4)c(Cl)cc23)C[C@H]1C (atropisomer, axis not shown; (M)) [Example 92-53, (M)-6-Chloro-4-[(2S,5R)-2,5-dimethyl-4-prop-2-enoyl-piperazin-1-yl]-1-(2-isopropyl-4-methyl-3-pyridyl)-7-(m-tolyl)pyrido[2,3-d]pyrimidin-2-one] | 0.135 | 0.309 | > 7.5 |  |  | 
